Data published in paper PMC6412891, “Synthesis and Biological Evaluation of Novel Thiazolyl-Coumarin Derivatives as Potent Histone Deacetylase Inhibitors with Antifibrotic Activity” (Molecules, 2019).
Read-outs that look alike come from different tables or passages of the source.

How the values were obtained:
[1] = tested on: HDACs; conditions: read-out: IC50 HDAC inhibition, cited from earlier work
[2] = tested on: CFs; design: method as in PMID 24631770, PMID 24374140; conditions: cited from earlier work
[3] = tested on: HDACs HeLa cells nuclear extract; test: HDAC inhibitory activity, fluorometric kit, HeLa cell nuclear extract; assay type: biochemical, human; conditions: HeLa cell nuclear extract as HDAC source
[4] = target: T1, HDAC1 human recombinant (Homo sapiens, UniProt Q13547); test: HDAC1 inhibitory activity, fluorometric kit; assay type: biochemical; conditions: Class I
T1 construct: purchased Enzo Life Science BML-AK511

[5] = target: T2, HDAC6 human recombinant (Homo sapiens, UniProt Q9UBN7); test: HDAC6 inhibitory activity, fluorometric kit; assay type: biochemical; conditions: Class II
T2 construct: purchased Enzo Life Science BML-AK516
T2 sequence (Q9UBN7 1-1215): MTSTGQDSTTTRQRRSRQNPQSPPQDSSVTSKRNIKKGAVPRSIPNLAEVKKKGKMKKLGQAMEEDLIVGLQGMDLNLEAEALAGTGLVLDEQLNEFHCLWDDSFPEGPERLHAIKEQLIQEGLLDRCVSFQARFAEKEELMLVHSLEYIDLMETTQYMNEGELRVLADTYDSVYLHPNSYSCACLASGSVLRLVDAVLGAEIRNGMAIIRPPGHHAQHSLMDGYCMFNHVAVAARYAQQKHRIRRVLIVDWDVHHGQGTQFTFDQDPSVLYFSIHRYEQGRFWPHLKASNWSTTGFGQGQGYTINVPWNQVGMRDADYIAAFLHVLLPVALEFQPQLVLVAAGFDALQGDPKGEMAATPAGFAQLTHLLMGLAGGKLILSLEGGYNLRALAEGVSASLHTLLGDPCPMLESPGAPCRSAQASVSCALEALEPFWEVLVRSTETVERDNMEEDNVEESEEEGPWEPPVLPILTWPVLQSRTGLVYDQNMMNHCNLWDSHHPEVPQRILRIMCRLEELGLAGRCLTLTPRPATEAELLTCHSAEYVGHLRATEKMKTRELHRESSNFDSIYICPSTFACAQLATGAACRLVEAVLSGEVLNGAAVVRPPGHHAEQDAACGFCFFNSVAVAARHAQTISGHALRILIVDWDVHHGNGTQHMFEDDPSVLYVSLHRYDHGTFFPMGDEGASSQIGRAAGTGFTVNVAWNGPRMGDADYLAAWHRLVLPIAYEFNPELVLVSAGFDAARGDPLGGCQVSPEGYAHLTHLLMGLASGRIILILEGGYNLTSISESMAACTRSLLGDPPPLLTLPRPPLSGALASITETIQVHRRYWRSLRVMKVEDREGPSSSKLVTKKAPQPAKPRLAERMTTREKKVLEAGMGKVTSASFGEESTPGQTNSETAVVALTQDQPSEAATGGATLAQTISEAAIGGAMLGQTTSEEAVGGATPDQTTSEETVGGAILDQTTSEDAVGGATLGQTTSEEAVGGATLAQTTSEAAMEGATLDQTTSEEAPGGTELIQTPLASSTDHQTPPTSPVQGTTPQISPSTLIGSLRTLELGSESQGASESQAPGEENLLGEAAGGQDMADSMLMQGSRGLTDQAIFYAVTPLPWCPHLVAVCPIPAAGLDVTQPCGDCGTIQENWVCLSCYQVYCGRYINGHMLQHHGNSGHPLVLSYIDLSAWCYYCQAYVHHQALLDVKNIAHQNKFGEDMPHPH

[6] = Cytotoxicity assay (Alamar Blue) in cardiac fibroblasts; assay type: cell-based, rat; conditions: Sprague-Dawley, rat, primary neonatal rat cardiac fibroblasts (CFs), CFs treated for 48 h
Protocol: (§1) CFs were treated for 48 h with all the new CTz derivatives in a broad concentration range (100 μM^−1 mM), and their cytotoxicity was then evaluated. In Table 3 cytotoxic concentration 50 (CC50) values for each of the synthesized compounds are shown. […] When comparing the different ZBG the series 5 is the least cytotoxic for CFs, while series 8 was the most cytotoxic.
(§2) Sprague Dawley rats were obtained from the Animal Breeding Facility of the School of Chemical and Pharmaceutical Sciences at the University of Chile. All studies followed the Guide for the Care and Use of Laboratory Animals published by the US National Institutes of Health (NIH Publication 8th, 2011), and experimental protocols were approved by the University of Chile Institutional Ethics Review Committee. CF were isolated from of 2 or 3–day–old Sprague-Dawley rats and cultured as described previously. Briefly, the neonatal rats were decapitated and their hearts were extracted under aseptic environment. Atria were removed and ventricles were cut into small pieces (~1–2 mm) for posterior colagenase II digestion. The digestion yield was separated by 10 min centrifugation at 89×g. The pellet was resuspended in 10 mL of Dulbecco’s Modified Eagle’s Medium/Nutrient F-12 (DMEM-F12) supplemented with 10% FBS and antibiotics (100 μg/mL streptomycin and 100 units/mL penicillin) and cultured in a humid atmosphere of 5% CO2 and 95% O2 at 37°C until confluence (5 days). The purity of the CFs population was assessed through the expression of several markers. CFs had positive staining against vimentin (Santa Cruz Biotechnology), while being negative against sarcomeric actin and desmin (Sigma-Aldrich). Experiments were performed on cells at passage 1. Cells were cultured in 35-mm well plates and serum starved for 24 h prior to stimulation.
(§3) To evaluate cytotoxicity, CFs were seeded in 12 microwell plates at a ratio of 2 × 10^4 cell/cm^2, cultured in DMEM–F12 medium + 10% FBS, which was subsequently replaced by DMEM–F12. After 24 h of serum starvation derivatives were applied at proper times and concentrations in accordance to experimental procedures. Cell viability assays were carried out using Alamar Blue®, a nontoxic, cell permeable non fluorescent compound that is blue in color. Viable cells reduce resazurin to resorufin, which produces very bright red fluorescence which is used as a quantitative cell viability measure. 10 μL of 0.2 mg/mL Alamar Blue® was added into each well followed by incubation for 24 h. The fluorescence of Alamar Blue® was read using microplate reader at 570 excitation and emission to 595 nm. Cell survival was expressed as percentage over the untreated cells. To evaluate CFs proliferation assay, cells were seeded as mentioned before, and after serum starvation, they were stimulated by 10% fetal bovine serum (FBS), in presence/absence of CTz derivatives for 24 h, at concentrations according to experiment. Cell proliferation was quantified by Alamar Blue®, according to protocol mentioned before. Cell proliferation was expressed as percentage over the control FBS treated cells.

[7] = tested on: neonatal rat cardiac fibroblasts (CFs); test: FBS-induced cardiac fibroblast proliferation assay (Alamar Blue); assay type: cell-based; conditions: 10% FBS-induced CF proliferation, 48 h, read-out: Inhibition percentage of cell proliferation
Protocol: CFs were treated for 48 h with 10% fetal bovine serum (FBS), to induce CFs proliferation in presence/absence of each new CTz derivatives in a concentration range of 1–10 μM. In Table 4, the inhibition percentage of cell proliferation for each concentration of the synthesized compounds are shown. All derivatives inhibited CFs proliferation induce by serum.
as §2, with “Cells were cultured in 35-mm well plates and serum starved for 24 h prior to stimulation.” left out
as §3, with “10 μL of 0.2 mg/mL Alamar Blue® was added into each well followed by incubation for 24 h.” left out, “To evaluate CFs proliferation assay, cells were seeded as mentioned before, and after serum starvation, they were stimulated by 10% fetal bovine serum (FBS), in presence/absence of CTz derivatives for 24 h, at concentrations according to experiment.” left out

[8] = tested on: neonatal rat cardiac fibroblasts (CFs); test: Cytotoxicity assay (Alamar Blue) in cardiac fibroblasts; assay type: cell-based; conditions: CFs treated for 48 h
Protocol: as §1, §2, §3

T1 sequence (Q13547 whole entry): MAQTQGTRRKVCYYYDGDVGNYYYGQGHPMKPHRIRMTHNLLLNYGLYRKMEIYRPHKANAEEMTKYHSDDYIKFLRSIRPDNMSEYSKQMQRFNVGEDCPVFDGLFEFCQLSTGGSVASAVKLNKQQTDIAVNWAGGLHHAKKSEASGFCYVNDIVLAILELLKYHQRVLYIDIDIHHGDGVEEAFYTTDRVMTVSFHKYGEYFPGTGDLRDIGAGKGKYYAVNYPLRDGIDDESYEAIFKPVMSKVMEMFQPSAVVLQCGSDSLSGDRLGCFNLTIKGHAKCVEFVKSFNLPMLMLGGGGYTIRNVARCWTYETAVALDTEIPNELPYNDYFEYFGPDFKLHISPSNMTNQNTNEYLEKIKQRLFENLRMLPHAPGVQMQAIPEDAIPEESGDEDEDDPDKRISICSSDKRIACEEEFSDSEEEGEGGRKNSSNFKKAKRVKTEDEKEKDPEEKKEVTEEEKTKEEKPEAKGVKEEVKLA

| IC50 [3] | IC50 [4] | IC50 [5] | Compound | CC50 at 48 h [6] | inhibition at 1 µM [7] | inhibition at 5 µM [7] | inhibition at 10 µM [7] | other results |
| --- | --- | --- | --- | --- | --- | --- | --- | --- |
| – | – | – | O=C(O)CCCc1ccccc1 [phenylbutyric acid] | – | – | – | – | IC50 ([1]; short chain fatty acids): 620 µM |
| – | – | – | CCC(=O)CCCCC[C@@H]1NC(=O)[C@H]2CCCCN2C(=O)[C@H]([C@@H](C)CC)NC(=O)[C@H](Cc2cn(OC)c3ccccc23)NC1=O [apicidin] | – | – | – | – | concentration shown to inhibit the proliferation of CFs [2]: 3 µM |
| 0.0415 ± 0.0027 µM | 0.0465 ± 0.0022 µM | 0.0626 ± 0.0023 µM | COc1ccc2oc(=O)c(-c3csc(NC(=O)CCCCC(=O)NO)n3)cc2c1 [Compound 8c, 5-[4-(6-Methoxy-2-oxo-2H-chromen-3-yl)-thiazol-2-yl-carbamoyl]-N-hydroxypentanamide] | 86.5 ± 5.9 µM | 69.7 ± 9.1% | 81.8 ± 5.5% | 97.7 ± 4.7% | melting point: 125 to 127 °C (dec.) |
| – | – | – | O=C(/C=C/c1ccc(O)c(O)c1)O[C@@H]1C[C@](O)(C(=O)O)C[C@@H](O)[C@H]1O [chlorogenic acid] | – | – | – | – | IC50 ([1]; catecholic derivatives): 375 µM |
| – | – | – | O=C(O)/C=C/c1ccc(O)c(O)c1 [caffeic acid] | – | – | – | – | IC50 ([1]; catecholic derivatives): 2540 µM |
| 0.0571 ± 0.0045 µM | 0.0454 ± 0.0026 µM | 0.0802 ± 0.0037 µM | O=C(CCCCC(=O)Nc1nc(-c2cc3cc(Br)ccc3oc2=O)cs1)NO [Compound 8b, 5-[4-(6-Bromo-2-oxo-2H-chromen-3-yl)-thiazol-2-yl-carbamoyl]-N-hydroxypentanamide] | 72.4 µM | 72.7 ± 3.9% | 94.4 ± 7% | 104 ± 2.8% | CC50 [8]: 72.5 ± 11.6 µM |
| – | – | – | CCCC(CCC)C(=O)O [valproic acid] | – | – | – | – | IC50 ([1]; short chain fatty acids): 140 µM |
| 0.05 ± 0.0017 µM | 0.0397 ± 0.0013 µM | 0.0841 ± 0.0029 µM | COc1ccc2oc(=O)c(-c3csc(NC(=O)CCCCC4CCSS4)n3)cc2c1 (stereo not drawn) [Compound 5c, 5-[1,2]-Dithiolan-3-yl-N-[4-(6-methoxy-2-oxo-2H-chromen-3-yl)-thiazol-2-yl]-pentanamide] | 171 ± 6.1 µM | 67 ± 8.3% | 83.2 ± 6.8% | 91.2 ± 3.2% | melting point: 83 to 84 °C |
| – | – | – | Nc1ccccc1NC(=O)c1ccc(CNc2nccc(-c3cccnc3)n2)cc1 [mocetinostat] | – | – | – | – | concentration shown to inhibit the proliferation of CFs [2]: 1 µM |
